Test results from patent US11453660B2, “Androgen receptor and glucocorticoid receptor modulators” (ONCOSTELLAE, S.L., priority 2017, dated 2022).
pIC50: −log10 of the molar value.

How the values were obtained:
[1] = biological target: T1, human androgen receptor (Homo sapiens, UniProt P10275, T878A); experiment: Human Androgen Receptor Binding (radioligand binding, LnCap prostate cancer cell line); conditions: LnCap cells, displacement of [^3H]-methyltrienolone, 2 hours at 37° C.; read-out: AR LNCaP
T1 construct: endogenously expressed human androgen receptor using the LnCap prostate cancer cell line; endogenous in cells; host or cells: LNCaP prostate cancer cell line (whole cells)
T1 sequence (P10275 1-920 T878A): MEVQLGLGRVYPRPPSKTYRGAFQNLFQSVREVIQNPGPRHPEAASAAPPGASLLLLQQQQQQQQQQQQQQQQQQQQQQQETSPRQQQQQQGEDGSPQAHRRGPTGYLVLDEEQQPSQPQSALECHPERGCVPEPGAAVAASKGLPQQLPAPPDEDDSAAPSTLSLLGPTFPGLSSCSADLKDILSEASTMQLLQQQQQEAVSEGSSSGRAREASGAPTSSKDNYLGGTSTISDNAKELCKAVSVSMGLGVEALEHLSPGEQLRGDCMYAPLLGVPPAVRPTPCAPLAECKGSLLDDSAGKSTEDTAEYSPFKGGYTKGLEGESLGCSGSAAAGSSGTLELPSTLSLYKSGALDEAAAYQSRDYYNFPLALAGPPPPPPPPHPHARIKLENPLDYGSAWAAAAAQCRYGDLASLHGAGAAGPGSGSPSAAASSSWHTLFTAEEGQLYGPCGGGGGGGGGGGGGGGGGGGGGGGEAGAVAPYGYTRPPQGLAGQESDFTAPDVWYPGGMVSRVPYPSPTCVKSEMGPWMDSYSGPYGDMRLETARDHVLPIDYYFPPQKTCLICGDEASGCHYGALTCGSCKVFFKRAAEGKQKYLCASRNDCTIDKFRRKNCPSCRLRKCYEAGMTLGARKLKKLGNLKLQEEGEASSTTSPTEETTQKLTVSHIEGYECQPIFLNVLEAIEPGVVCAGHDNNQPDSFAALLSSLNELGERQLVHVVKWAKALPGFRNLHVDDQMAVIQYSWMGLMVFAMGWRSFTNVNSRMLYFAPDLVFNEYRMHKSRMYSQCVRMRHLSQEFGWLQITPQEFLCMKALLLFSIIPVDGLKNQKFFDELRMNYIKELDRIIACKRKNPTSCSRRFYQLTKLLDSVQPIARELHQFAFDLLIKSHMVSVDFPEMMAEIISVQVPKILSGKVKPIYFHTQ
Outline: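 Whole-cell displacement of [3H]-methyltrienolone from endogenous AR (T878A) in LnCap cells, in RPMI with 0.1% BSA and triamcinolone acetonide. Compounds 10 μM to 0.1 nM in 1:10 steps, 2 h at 37 °C; cells washed, SDS-lysed, bound radioactivity by scintillation counting for IC50.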

[2] = biological target: T2, Human Glucocorticoid Receptor (Homo sapiens, UniProt P04150); experiment: Competition Binding in IM-9 Human Glucocorticoid Receptor (GR IM-9); conditions: cytosol from IM-9 cell line, 1.5 nM [3H]-Dexamethasone, 4° C. for 6 hours
T2 construct: endogenous in cells; host or cells: cytosol from IM-9 cell line
T2 sequence (P04150 1-777): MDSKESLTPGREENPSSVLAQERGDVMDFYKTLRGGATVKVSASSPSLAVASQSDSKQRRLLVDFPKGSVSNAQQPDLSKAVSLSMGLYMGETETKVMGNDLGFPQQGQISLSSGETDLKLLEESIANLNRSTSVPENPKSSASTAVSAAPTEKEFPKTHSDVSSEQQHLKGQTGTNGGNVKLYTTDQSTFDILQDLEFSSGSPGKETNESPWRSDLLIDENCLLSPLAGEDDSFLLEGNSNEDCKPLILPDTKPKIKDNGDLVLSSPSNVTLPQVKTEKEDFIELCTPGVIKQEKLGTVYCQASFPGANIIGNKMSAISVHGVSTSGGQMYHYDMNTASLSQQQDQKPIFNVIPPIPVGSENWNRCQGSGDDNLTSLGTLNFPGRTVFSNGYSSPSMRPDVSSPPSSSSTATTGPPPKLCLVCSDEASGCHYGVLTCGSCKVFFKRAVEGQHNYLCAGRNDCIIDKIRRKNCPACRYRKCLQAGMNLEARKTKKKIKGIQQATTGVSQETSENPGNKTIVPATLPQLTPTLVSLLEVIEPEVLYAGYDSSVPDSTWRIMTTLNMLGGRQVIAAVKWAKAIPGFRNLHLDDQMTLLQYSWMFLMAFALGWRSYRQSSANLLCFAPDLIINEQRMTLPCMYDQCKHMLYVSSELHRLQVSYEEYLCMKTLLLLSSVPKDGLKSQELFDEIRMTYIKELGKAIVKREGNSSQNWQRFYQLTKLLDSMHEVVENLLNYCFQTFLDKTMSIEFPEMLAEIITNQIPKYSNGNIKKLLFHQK
Outline: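 Radioligand competition using 100 μg IM-9 cell cytosol and 1.5 nM [3H]-dexamethasone, incubated 6 h at 4° C in TES/molybdate buffer, pH 7.4. Filtration on PEI-treated GF/B filters, scintillation counting; nonspecific binding defined with 10 μM triamcinolone.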

Row | pIC50 [1] | pIC50 [2] | SMILES
1 | ≤ 6.00 | 6.00 to 7.00 | CC(=O)C1=C(C)NC(C)=C(C(=O)OCc2ccccc2)C1c1csc2ccccc12 (centres unmarked) [Example B6, Benzyl 5-acetyl-4-(benzo[b]thiophen-3-yl)-2,6-dimethyl-1,4-dihydro-pyridine-3-carboxylate]
2 | ≤ 6.00 | 6.00 to 7.00 | CC(=O)C1=C(C)NC(C)=C(C(=O)OCC2CCOCC2)C1c1csc2ccccc12 (centres unmarked) [Example C2, (Tetrahydro-2H-pyran-4-yl)methyl 5-acetyl-4-(benzo[b]thiophen-3-yl)-2,6-dimethyl-1,4-dihydropyridine-3-carboxylate]
3 | > 7.00 | > 7.00 | CC(=O)C1=C(C)NC(C)=C(C(=O)OCC2CC2)C1c1csc2ncccc12 (centres unmarked) [Example C24, Cyclopropylmethyl 5-acetyl-2,6-dimethyl-4-(thieno[2,3-b]pyridin-3-yl)-1,4-dihydropyridine-3-carboxylate]
4 | 6.00 to 7.00 | > 7.00 | CC(=O)C1=C(C)NC(C)=C(C(=O)OC2CCCCC2)C1c1csc2ncccc12 (centres unmarked) [Example C36, Cyclohexyl 5-acetyl-2,6-dimethyl-4-(thieno[2,3-b]pyridin-3-yl)-1,4-dihydropyridine-3-carboxylate]
5 | 6.00 to 7.00 | > 7.00 | CC(=O)C1=C(C)NC(C)=C(C(=O)OCc2ccccc2)C1c1csc2ncccc12 (centres unmarked) [Example C39, Benzyl 5-acetyl-2,6-dimethyl-4-(thieno[2,3-b]pyridin-3-yl)-1,4-dihydropyridine-3-carboxylate]
6 | ≤ 6.00 | 6.00 to 7.00 | CC(=O)C1=C(C)NC(C)=C(C(=O)OCc2ccccc2)C1c1csc2ccc(F)cc12 (centres unmarked) [Example C41, Benzyl 5-acetyl-4-(5-fluorobenzo[b]thiophen-3-yl)-2,6-dimethyl-1,4-dihydropyridine-3-carboxylate]
7 | ≤ 6.00 | > 7.00 | CC(=O)C1=C(C)NC(C)=C(C(=O)OCc2ccccc2)C1c1csc2ccc(Cl)cc12 (centres unmarked) [Example C42, Benzyl 5-acetyl-4-(5-chlorobenzo[b]thiophen-3-yl)-2,6-dimethyl-1,4-dihydropyridine-3-carboxylate]
8 | ≤ 6.00 | 6.00 to 7.00 | CC(=O)C1=C(C)NC(C)=C(C(=O)OCC2CCOCC2)C1c1csc2ccc(Cl)cc12 (centres unmarked) [Example C43, (Tetrahydro-2H-pyran-4-yl)methyl 5-acetyl-4-(5-chlorobenzo[b]thiophen-3-yl)-2,6-dimethyl-1,4-dihydropyridine-3-carboxylate]
9 | ≤ 6.00 | 6.00 to 7.00 | CC(=O)C1=C(C)NC(C)=C(C(=O)OCC2CCOCC2)C1c1csc2ccc(F)cc12 (centres unmarked) [Example C44, (Tetrahydro-2H-pyran-4-yl)methyl 5-acetyl-4-(5-fluorobenzo[b]thiophen-3-yl)-2,6-dimethyl-1,4-dihydropyridine-3-carboxylate]
10 | 6.00 to 7.00 | > 7.00 | CC(=O)C1=C(C)NC(C)=C(C(=O)OCc2ccncc2)C1c1csc2ccc(F)cc12 (centres unmarked) [Example C46, Pyridin-4-ylmethyl 5-acetyl-4-(5-fluorobenzo[b]thiophen-3-yl)-2,6-dimethyl-1,4-dihydropyridine-3-carboxylate]
11 | ≤ 6.00 | 6.00 to 7.00 | CC(=O)C1=C(C)NC(C)=C(C(=O)OCc2cccnc2)C1c1csc2ccccc12 (centres unmarked) [Example C48, Pyridin-3-ylmethyl 5-acetyl-4-(benzo[b]thiophen-3-yl)-2,6-dimethyl-1,4-dihydropyridine-3-carboxylate]
12 | > 7.00 | > 7.00 | CC(=O)C1=C(C)NC(C)=C(C(=O)OCc2cccnc2)C1c1csc2c(Br)cccc12 (centres unmarked) [Example C58, Pyridin-3-ylmethyl 5-acetyl-4-(7-bromobenzo[b]thiophen-3-yl)-2,6-dimethyl-1,4-dihydropyridine-3-carboxylate]
13 | ≤ 6.00 | > 7.00 | CC(=O)C1=C(C)NC(C)=C(C(=O)OCc2ccc(Br)cc2)C1c1csc2ncccc12 (centres unmarked) [Example C65, 4-bromobenzyl 5-acetyl-2,6-dimethyl-4-(thieno[2,3-b]pyridin-3-yl)-1,4-dihydropyridine-3-carboxylate]
